Several values for one entry are separate records, joined by “and”; a condition that tells them apart may be missing. Equal values may be shown once. Inconclusive results and toxic doses are left out.
Tested on: BDF1 mice, P1081 chloroleukemia ip, survival T/C
Assay: NCI In Vivo Anticancer Drug Screen. Data for tumor model P1081 Chloroleukemia (intraperitoneal) in B6D2F1 (BDF1) mice
Conditions: endpoint: mean survival time, higher = longer survival
Description: The antitumor activity of compounds was measured in mice bearing transplantable tumors. Survival or tumor size were measured and the results are expressed as the measurement made in the treated group (T) divided by the measurement made in the vehicle treated control group (C). The tumor model used in this assay is P1081 Chloroleukemia (intraperitoneal) in B6D2F1 (BDF1) mice

[1] = dose: 62.5 micrograms/kg/injection, schedule: Q01DX010 (ip), vehicle: saline
[2] = dose: 125.0 micrograms/kg/injection, schedule: Q01DX010 (ip), vehicle: saline
[3] = dose: 250.0 micrograms/kg/injection, schedule: Q01DX010 (ip), vehicle: saline
[4] = dose: 500.0 micrograms/kg/injection, schedule: Q01DX010 (ip), vehicle: saline
[5] = dose: 25.0 mg/kg/injection, schedule: Q01DX010 (ip), vehicle: saline
[6] = dose: 50.0 mg/kg/injection, schedule: Q01DX010 (ip), vehicle: saline
[7] = dose: 100.0 mg/kg/injection, schedule: Q01DX010 (ip), vehicle: saline
[8] = dose: 20.0 mg/kg/injection, schedule: Q01DX010 (ip), vehicle: saline
[9] = dose: 40.0 mg/kg/injection, schedule: Q01DX010 (ip), vehicle: saline
[10] = dose: 62.5 mg/kg/injection, schedule: Q01DX Z (ip), vehicle: carboxymethylcellulose (CMC)
[11] = dose: 8.0 mg/kg/injection, schedule: Q01DX010 (ip), vehicle: saline
[12] = dose: 16.0 mg/kg/injection, schedule: Q01DX010 (ip), vehicle: saline
[13] = dose: 6.25 mg/kg/injection, schedule: Q01DX010 (ip), vehicle: saline
[14] = dose: 12.5 mg/kg/injection, schedule: Q01DX010 (ip), vehicle: saline
[15] = dose: 0.31 mg/kg/injection, schedule: Q01DX Z (ip), vehicle: carboxymethylcellulose (CMC)
[16] = dose: 0.63 mg/kg/injection, schedule: Q01DX Z (ip), vehicle: carboxymethylcellulose (CMC)

In the case of `O[C@H](CN1CC1)[C@@H](O)CN1CC1`, the T/C (dose: 0.12 mg/kg/injection, schedule: Q01DX Z (ip), vehicle: carboxymethylcellulose (CMC)) is reported as 193 % of control, the T/C (dose: 0.25 mg/kg/injection, schedule: Q01DX Z (ip), vehicle: carboxymethylcellulose (CMC)) is reported as 204 % of control and the T/C (dose: 0.5 mg/kg/injection, schedule: Q01DX Z (ip), vehicle: carboxymethylcellulose (CMC)) is reported as 117 % of control. The T/C (dose: 16.0 micrograms/kg/injection, schedule: Q01DX Z (ip), vehicle: carboxymethylcellulose (CMC)) was 100 % of control, the T/C [1] was 316 % of control and the T/C [2] was 210 % of control and 261 % of control. For the same compound, the T/C (dose: 125.0 micrograms/kg/injection, schedule: Q01DX Z (ip), vehicle: carboxymethylcellulose (CMC)) was 157 % of control, the T/C [3] was 288 % of control and the T/C [4] was 150 % of control and 177 % of control.

For `CCN(CC)CCNc1ccc(C)c2sc3ccccc3c(=O)c12`, the T/C (dose: 1.56 mg/kg/injection, schedule: Q01DX Z (ip), vehicle: methylcellulose (MC)) was 87 % of control, the T/C (dose: 6.25 mg/kg/injection, schedule: Q01DX Z (ip), vehicle: methylcellulose (MC)) was 88 % of control and the T/C (dose: 6.3 mg/kg/injection, schedule: Q01DX Z (ip), vehicle: methylcellulose (MC)) was 90 % of control. The T/C (dose: 12.5 mg/kg/injection, schedule: Q01DX Z (ip), vehicle: methylcellulose (MC)) was 91 % of control, the T/C [5] was 110 % of control and 122 % of control and the T/C (dose: 25.0 mg/kg/injection, schedule: Q01DX Z (ip), vehicle: methylcellulose (MC)) was 95 % of control. For the same compound, the T/C [6] was 150 % of control, the T/C (dose: 50.0 mg/kg/injection, schedule: Q01DX Z (ip), vehicle: methylcellulose (MC)) was 96 % of control and the T/C [7] was 122 % of control and 95 % of control. For the same compound, the T/C (dose: 100.0 mg/kg/injection, schedule: Q01DX Z (ip), vehicle: methylcellulose (MC)) was 101 % of control.

For `CS(=O)(=O)OCCN(CCOS(C)(=O)=O)c1ccc(N=O)cc1`, the T/C (dose: 0.5 mg/kg/injection, schedule: Q01DX010 (ip), vehicle: saline) was 122 % of control, the T/C (dose: 1.0 mg/kg/injection, schedule: Q01DX010 (ip), vehicle: saline) was 104 % of control and the T/C [1] was 155 % of control. The T/C [2] was 194 % of control, the T/C [3] was 277 % of control and the T/C [4] was 238 % of control.

With `OCC1OC(n2cnc3c(=S)nc[nH]c32)C(O)C1O` (stereo unspecified) the T/C [8] was 110 % of control and 105 % of control, the T/C [9] was 110 % of control and 100 % of control and the T/C [10] was 160 % of control. For the same compound, the T/C (dose: 80.0 mg/kg/injection, schedule: Q01DX010 (ip), vehicle: saline) was 115 % of control and 120 % of control, the T/C (dose: 125.0 mg/kg/injection, schedule: Q01DX Z (ip), vehicle: carboxymethylcellulose (CMC)) was 158 % of control and the T/C (dose: 160.0 mg/kg/injection, schedule: Q01DX010 (ip), vehicle: saline) was 120 % of control. The T/C (dose: 250.0 mg/kg/injection, schedule: Q01DX Z (ip), vehicle: carboxymethylcellulose (CMC)) was 104 % of control and the T/C (dose: 500.0 mg/kg/injection, schedule: Q01DX Z (ip), vehicle: carboxymethylcellulose (CMC)) was 94 % of control.

With `CN1CC[C@]23c4c5ccc(O)c4O[C@H]2C(=O)CC[C@H]3[C@H]1C5` the T/C (dose: 2.0 mg/kg/injection, schedule: Q01DX010 (ip), vehicle: saline) was 105 % of control, the T/C (dose: 4.0 mg/kg/injection, schedule: Q01DX010 (ip), vehicle: saline) was 90 % of control and 100 % of control and the T/C [11] was 90 % of control and 105 % of control. The T/C [12] was 90 % of control and 100 % of control.

For `O=[n+]1c2c(n([O-])c3ccccc31)-c1cccc3cccc-2c13`, the T/C [13] was 100 % of control, the T/C [14] was 100 % of control and the T/C [5] was 88 % of control and 90 % of control. The T/C [6] was 88 % of control and 90 % of control.

In the case of `Clc1ccc(C(c2ccccc2Cl)C(Cl)Cl)cc1` (stereo unspecified), the T/C (dose: 0.8 mg/kg/injection, schedule: Q01DX Z (sc), vehicle: steriod suspending solution) is reported as 110 % of control, the T/C (dose: 3.1 mg/kg/injection, schedule: Q01DX Z (sc), vehicle: steriod suspending solution) is reported as 117 % of control and the T/C (dose: 6.25 mg/kg/injection, schedule: Q01DX Z (sc), vehicle: steriod suspending solution) is reported as 101 % of control. For the same compound, the T/C (dose: 12.5 mg/kg/injection, schedule: Q01DX Z (sc), vehicle: steriod suspending solution) was 100 % of control, the T/C (dose: 25.0 mg/kg/injection, schedule: Q01DX Z (sc), vehicle: steriod suspending solution) was 93 % of control and 95 % of control and the T/C (dose: 50.0 mg/kg/injection, schedule: Q01DX Z (sc), vehicle: steriod suspending solution) was 93 % of control. The T/C (dose: 100.0 mg/kg/injection, schedule: Q01DX Z (sc), vehicle: steriod suspending solution) was 87 % of control.

For `O=C(C[N+]12CN3CN(CN(C3)C1)C2)c1ccc(Cl)cc1`, the T/C (dose: 37.5 mg/kg/injection, schedule: Q01DX010 (ip), vehicle: saline) was 113 % of control and 98 % of control, the T/C (dose: 75.0 mg/kg/injection, schedule: Q01DX010 (ip), vehicle: saline) was 107 % of control and 112 % of control and the T/C (dose: 150.0 mg/kg/injection, schedule: Q01DX010 (ip), vehicle: saline) was 112 % of control and 118 % of control. The T/C (dose: 300.0 mg/kg/injection, schedule: Q01DX010 (ip), vehicle: saline) was 110 % of control and 114 % of control.

For `Nc1ncnc2c1ccn2C1OC(CO)C(O)C1O` (stereo unspecified), the T/C (dose: 0.04 mg/kg/injection, schedule: Q01DX Z (ip), vehicle: carboxymethylcellulose (CMC)) was 98 % of control, the T/C (dose: 0.08 mg/kg/injection, schedule: Q01DX Z (ip), vehicle: carboxymethylcellulose (CMC)) was 94 % of control and the T/C (dose: 0.16 mg/kg/injection, schedule: Q01DX Z (ip), vehicle: carboxymethylcellulose (CMC)) was 101 % of control. The T/C [15] was 110 % of control and 112 % of control, the T/C [16] was 108 % of control and the T/C (dose: 1.25 mg/kg/injection, schedule: Q01DX Z (ip), vehicle: carboxymethylcellulose (CMC)) was 88 % of control.

In the case of `Nc1nc(=S)c2ncn(C3OC(CO)C(O)C3O)c2[nH]1` (stereo unspecified), the T/C [15] is reported as 117 % of control, the T/C [16] is reported as 115 % of control and the T/C (dose: 2.5 mg/kg/injection, schedule: Q01DX Z (ip), vehicle: carboxymethylcellulose (CMC)) is reported as 158 % of control. The T/C (dose: 5.0 mg/kg/injection, schedule: Q01DX Z (ip), vehicle: carboxymethylcellulose (CMC)) was 95 % of control, the T/C [11] was 95 % of control and the T/C [12] was 90 % of control. The T/C (dose: 20.0 mg/kg/injection, schedule: Q01DX Z (ip), vehicle: carboxymethylcellulose (CMC)) was 90 % of control.

For `CS(=O)(=O)OCCC(=O)N1CCN(C(=O)CCOS(C)(=O)=O)CC1`, the T/C [5] was 150 % of control and 285 % of control, the T/C [6] was 260 % of control and 277 % of control and the T/C [7] was 120 % of control and 205 % of control.

In the case of `C[C@H]1C(=O)O[C@@H]2CCN3CC=C(COC(=O)[C@](C)(O)[C@@]1(C)O)[C@H]23`, the T/C (dose: 3.13 mg/kg/injection, schedule: Q01DX010 (ip), vehicle: saline) is reported as 115 % of control and 95 % of control, the T/C [13] is reported as 100 % of control and the T/C (dose: 7.5 mg/kg/injection, schedule: Q01DX Z (ip), vehicle: carboxymethylcellulose (CMC)) is reported as 106 % of control. For the same compound, the T/C [14] was 95 % of control, the T/C (dose: 15.0 mg/kg/injection, schedule: Q01DX Z (ip), vehicle: carboxymethylcellulose (CMC)) was 99 % of control and the T/C [5] was 120 % of control and 95 % of control. For the same compound, the T/C (dose: 30.0 mg/kg/injection, schedule: Q01DX Z (ip), vehicle: carboxymethylcellulose (CMC)) was 101 % of control, the T/C (dose: 60.0 mg/kg/injection, schedule: Q01DX Z (ip), vehicle: carboxymethylcellulose (CMC)) was 106 % of control and the T/C (dose: 120.0 mg/kg/injection, schedule: Q01DX Z (ip), vehicle: carboxymethylcellulose (CMC)) was 153 % of control. For the same compound, the T/C (dose: 240.0 mg/kg/injection, schedule: Q01DX Z (ip), vehicle: carboxymethylcellulose (CMC)) was 103 % of control.

With `CCCCNc1ncnc2c1cnn2C` the T/C (dose: 16.0 mg/kg/injection, schedule: Q01DX Z (ip), vehicle: carboxymethylcellulose (CMC)) was 101 % of control, the T/C (dose: 31.0 mg/kg/injection, schedule: Q01DX Z (ip), vehicle: carboxymethylcellulose (CMC)) was 117 % of control and the T/C (dose: 31.25 mg/kg/injection, schedule: Q01DX010 (ip), vehicle: saline) was 95 % of control and 100 % of control. For the same compound, the T/C (dose: 62.5 mg/kg/injection, schedule: Q01DX010 (ip), vehicle: saline) was 95 % of control and 100 % of control, the T/C [10] was 113 % of control and the T/C (dose: 125.0 mg/kg/injection, schedule: Q01DX010 (ip), vehicle: saline) was 90 % of control and 105 % of control.

In the case of `O=c1[nH]cc(F)c(=O)[nH]1`, the T/C (dose: 1.56 mg/kg/injection, schedule: Q01DX Z (ip), vehicle: saline) is reported as 99 % of control, the T/C (dose: 10.0 mg/kg/injection, schedule: Q01DX010 (ip), vehicle: saline) is reported as 161 % of control and 165 % of control and the T/C (dose: 12.5 mg/kg/injection, schedule: Q01DX Z (ip), vehicle: saline) is reported as 150 % of control. For the same compound, the T/C [8] was 200 % of control and 230 % of control, the T/C [9] was 110 % of control and 94 % of control and the T/C (dose: 50.0 mg/kg/injection, schedule: Q01DX Z (ip), vehicle: saline) was 108 % of control. For the same compound, the T/C (dose: 100.0 mg/kg/injection, schedule: Q01DX Z (ip), vehicle: saline) was 96 % of control.

— PubChem BioAssay AID246 (DTP/NCI, 2004)
